Data: patent US11111232B2, “Substituted cyclobutylpyridine and cyclobutylpyrimidine compounds as indoleamine 2,3-dioxygenase (IDO) inhibitors” (MERCK SHARP & DOHME CORP., priority 2017, dated 2021)

Legend:
Assay type in all cases: cell-based
IDO1 [1] = target: T1, IDO1 (Homo sapiens, UniProt P14902); experiment: IDO1 cellular assay in Hela cells stimulated with IFNγ; settings: IFNγ 100 ng/mL, 300 uM L-tryptophan, about 48 hours, fluorescence readout
Procedure: IDO1 Cellular Assay in Hela Cells Stimulated with IFNγ
Hela cells were cultured in complete Hela culture medium (90% EMEM, 10% heat-inactivated fetal bovine serum) and expanded to about 1×10^9 cells. The cells were then collected and frozen down at 1×10^7 cells/vial in 1 mL frozen medium (90% complete Hela culture medium, 10% DMSO)
Compounds to be tested were serially diluted in ten 3-fold steps in DMSO starting from 10 mM DMSO stocks in Echo low volume plate(s).
Frozen Hela cells were thawed and transferred into Hela assay medium (99% complete Hela culture medium, 1% Pen/Strep) with 20 mL medium/vial of cells. The cells were spun down at 250 g in a table top centrifuge for 5 min and suspended in same volume of Hela assay medium. […] Sterile L-tryptophan were added to the cells with final concentration of 300 uM L-tryptophan. A small aliquot (2 mL/plate) of Hela cells were set aside and were not treated with IFNγ, to serve as the Max-E control.
Hela cells with and without IFNγ were dispensed to the respective wells of 384-well assay plates containing the compounds. The plates were incubated for about 48 hours at a 37° C., 5% CO2 incubator. Afterwards, […] of 0.5 M methyl isonipecotate in dimethyl sulfoxide were added into each well and the plates were sealed and incubated at 37° C. without CO2 overnight. The plates were centrifuged for 1 min at 200×g. The resulting fluorescence was measured in a Spectramax plate reader (Molecular Devices) with a 400 nm excitation filter and a 510 nm emission filter.
Potencies were calculated by linear least squares fit to the four parameter logistic IC50 equation.

IDO1 [2] = target: T1, IDO1; experiment: IDO1 HEK293 cellular assay; settings: HEK293 cells transfected with Flag-IDO1 vector, 20-24 hours, fluorescence readout
Procedure: IDO1 HEK293 Cellular Assay
Compounds to be tested were serially diluted in ten 3-fold steps in DMSO starting from 10 mM DMSO stocks. Compound dilutions or DMSO alone were then dispensed from the dilution plate into a Greiner black 384-well assay plate (catalog #781086) using an Echo 550 acoustic liquid handler (Labcyte).
HEK293 cell pellets were resuspended to 5×10^5 cells/mL in complete HEK293 culture media (89% DMEM, 10% FBS, 1% penicillin/streptomycin). Suspended cells (2 mL) were dispensed into each well of a 6-well Corning plate (Catalog # 3516). Cells were allowed to attach and were incubated for 20 hours at 37° C. in a 5% CO2 incubator. Flag-IDO1 vector (Genscript True ORF Gold, 2 ug) in 150 uL of Opti-MEM medium was added to each well of a Corning 24 well plate (Cat # 3527) and incubated for 5 minutes at room temperature. To each well of the 24-well plate was added […] Lipofectamine 2000 (Gibco) and the plate incubated at room temperature for 20-30 minutes. To each well of attached cells in the 6-well plate, […] of the transfection mix from the 24-well plate was gently added to each well and IDO1 protein was allowed to express for 24-30 hours at 37 degrees Celsius in a 5% CO2 incubator.
Media was removed from the cells which were then washed with 2 mL Dulbecco's phosphate-buffered saline (DPBS). After removal of DPBS, 0.5 mL of TrypLE (Gibco) was added and incubated at 5 minutes until cells lift from the surface of the wells. Complete HEK293 culture media (4 mL) was added to each well and cells were collected and pooled into a conical tube. Cells were pelleted at 200×g for 5 minutes and resuspended in an equal volume of complete DMEM medium. Cells were diluted to 4×10^5 cells per mL in complete HEK293 media. L-Tryptophan was added to added to give a final concentration of […]. The diluted transfected cells […] or nontransfected cells […] were dispensed into wells of Greiner black 384-well assay plates (catalog #781086) containing previously diluted compounds. The plate is briefly mixed and centrifuged at 200×g for 10 seconds to collect cells at the bottom of the plate. Plates were covered and incubated for 20-24 hours at 37 degrees C. in a 5% CO2 incubator. Afterwards […] of 0.5 M methyl isonipecotate in dimethyl sulfoxide was added to each well, mixed, sealed, and centrifuged at 500 rpm for 10 seconds. Plates were incubated at 37 degrees in a 5% CO2 incubator overnight to develop fluoresence. The plates are allowed to cool and then centrifuged for 1 minute at 1000×g. The resulting fluoresence was measured in an Envision plate reader (Perkin Elmer) with a 400/25 nm excitation filter and an 510/20 nm emission filter.
(§1) The fluoresence intensity of each well was corrected for the background observed in wells with untransfected cells and was expressed as a fraction of the intensity observed in wells of IDO1 transfected cells and DMSO only. Potencies were calculated by linear least squares fit to the four parameter logistic IC50 equation.

TDO = target: T2, TDO (Homo sapiens, UniProt P48775); experiment: TDO cellular assay in frozen SW48 cells; settings: 300 uM L-tryptophan, about 48 hours, fluorescence readout
T2 construct: endogenous in cells; host or cells: SW48 cells (A2780 cells as low-TDO control)
T2 sequence (P48775 whole entry): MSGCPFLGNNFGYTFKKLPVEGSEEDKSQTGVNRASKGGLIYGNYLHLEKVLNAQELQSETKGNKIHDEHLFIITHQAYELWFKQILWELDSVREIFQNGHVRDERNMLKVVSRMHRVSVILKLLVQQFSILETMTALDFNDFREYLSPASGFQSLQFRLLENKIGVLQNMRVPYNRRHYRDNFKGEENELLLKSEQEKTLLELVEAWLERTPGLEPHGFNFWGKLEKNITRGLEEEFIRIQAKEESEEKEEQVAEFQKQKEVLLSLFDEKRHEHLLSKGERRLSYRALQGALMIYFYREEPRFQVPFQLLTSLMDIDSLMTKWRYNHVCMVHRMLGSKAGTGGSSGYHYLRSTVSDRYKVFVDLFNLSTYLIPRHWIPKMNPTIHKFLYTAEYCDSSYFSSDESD
Procedure: TDO Cellular Assay in Frozen SW48 Cells
SW48 cells were cultured in complete RPMI culture medium (90% RPMI, 10% heat-inactivated fetal bovine serum).
Compounds to be tested were serially diluted in ten 3-fold steps in DMSO starting from 10 mM DMSO stocks in Echo low volume plate(s). […] The cells were spun down at 350 g in a table top centrifuge for 5 minutes and suspended in same volume of RPMI assay medium. […] Sterile L-tryptophan (Sigma, Cat #T0254) was added to the cells with final concentration of 300 uM.
SW48 and A2780 cells were dispensed to the respective wells of 384-well assay plates containing the compounds. The plates were incubated for about 48 hours at a 37° C., 5% CO2 incubator. Afterwards, 12 μL of 0.5 M ethyl isonipecotate (Sigma Aldrich, Cat #E33505) in dimethyl sulfoxide were added into each well and the plates were sealed and incubated at 37° C. without CO2 overnight. The plates were centrifuged for 1 minute at 200×g. The resulting fluorescence was measured in a Spectramax plate reader (Molecular Devices) with a 400 nm excitation filter and a 510 nm emission filter.
as §1, with “fluorescence” for “fluoresence”, “A2780” for “untransfected”, “SW48” for “IDO1 transfected”

T1 sequence (P14902 whole entry): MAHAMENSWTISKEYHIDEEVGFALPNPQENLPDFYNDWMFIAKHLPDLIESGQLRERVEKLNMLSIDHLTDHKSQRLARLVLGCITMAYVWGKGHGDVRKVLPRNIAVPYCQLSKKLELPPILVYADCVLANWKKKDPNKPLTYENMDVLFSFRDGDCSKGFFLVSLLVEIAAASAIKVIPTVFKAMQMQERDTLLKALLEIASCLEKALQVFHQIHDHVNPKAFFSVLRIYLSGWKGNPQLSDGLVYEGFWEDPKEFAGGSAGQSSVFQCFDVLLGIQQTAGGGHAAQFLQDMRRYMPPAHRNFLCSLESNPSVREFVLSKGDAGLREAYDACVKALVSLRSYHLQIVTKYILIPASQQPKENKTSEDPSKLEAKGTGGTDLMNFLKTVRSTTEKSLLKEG

Structure (SMILES)	IC50 (IDO1 [1])	IC50 (IDO1 [2])	IC50 (TDO)
O=C(CCC(F)(F)F)Nc1ccc(C2(C(=O)Nc3ccc(F)cc3)CCC2)cn1 [Example 5, N-(4-fluorophenyl)-1-(6-(4,4,4-trifluorobutanamido)pyridin-3-yl)cyclobutane-1-carboxamide]	72 nM	76 nM	≥ 10000 nM
O=C(Nc1ccc(C2(C(=O)Nc3ccc(F)cc3)CCC2)cn1)C1CCCC(F)(F)C1 (stereo not drawn) [Example 17, 3,3-difluoro-N-(5-{1-[(4-fluorophenyl)carbamoyl]cyclobutyl}pyridin-2-yl)cyclohexane-1-carboxamide]	28 nM	26 nM	≥ 10000 nM
O=C(CCC1CC1)Nc1ccc(C2(C(=O)Nc3ccc(F)cc3)CCC2)cn1 [Example 18, 1-{6-[(3-cyclopropylpropanoyl)amino]pyridin-3-yl}-N-(4-fluorophenyl)cyclobutane-1-carboxamide]	29 nM	32 nM	≥ 10000 nM
O=C(Nc1ccc(C2(C(=O)Nc3ccc(F)cc3)CCC2)cn1)C1CCOCC1 [Example 20, N-(5-{1-[(4-fluorophenyl)carbamoyl]cyclobutyl}pyridin-2-yl)oxane-4-carboxamide]	138 nM	156 nM	≥ 10000 nM
O=C(Nc1ccc(C2(C(=O)Nc3ccc(F)cc3)CCC2)cn1)C1CCCOC1 (stereo not drawn) [Example 22, N-(5-{1-[(4-fluorophenyl)carbamoyl]cyclobutyl}pyridin-2-yl)oxane-3-carboxamide]	154 nM	123 nM	≥ 10000 nM
CC(C)CC(=O)Nc1ccc(C2(C(=O)Nc3ccc(F)cc3)CCC2)cn1 [Example 27, N-(4-fluorophenyl)-1-{6-[(3-methylbutanoyl)amino]pyridin-3-yl}cyclobutane-1-carboxamide]	25 nM	28 nM	≥ 10000 nM
O=C(CC1CC1)Nc1ccc(C2(C(=O)Nc3ccc(F)cc3)CCC2)cn1 [Example 30, 1-{6-[(cyclopropylacetyl)amino]pyridin-3-yl}-N-(4-fluorophenyl)cyclobutane-1-carboxamide]	83 nM	70 nM	≥ 10000 nM
